The text below walks through data of patent US7524981B2, “Phospholipid derivatives and process for the production there” (NOF Corporation, priority 2003, dated 2009).

This data set can be described thus: Salt-tolerant effect: clouding point in aqueous sodium sulfate. Particulars: 1 mass % solution in 5 mass % aqueous solution of sodium sulfate. The data set is classed as physicochemical. As for the experimental part:
Clouding point of a 1 mass % solution of tetradecaglycerol succinyl distearoylphosphatidylethanolamine obtained in Example 5, which was dissolved in 5 mass % aqueous solution of sodium sulfate, was measured. As a result of the measurement, clouding point could not be detected even when the temperature was raised to 80° C.
Clouding point was measured for monomethylpolyoxyethylenecarbamyl (molecular weight: 2000) distearoylphosphatidylethanolamine obtained in Comparative Synthesis Example 1 in the same manner as used in Example 9.

Turning to “Monomethylpolyoxyethylenecarbamyl (Molecular Weight: 2000) Distearoylphosphatidylethanolamine”, the Clouding point stood at 50.0 °C.

In the case of “Tetradecaglycerol Succinyl Distearoylphosphatidylethanolamine [DSPE-PG(40)]”, the Clouding point was above 80 °C.
